Results from patent US10854312B2, “Selective peptide antagonists” (BIONIZ, LLC, priority 2013, dated 2020).
Entries after “also recorded” stand apart in the source; their conditions may differ. No end group written: not given here.

System: human IL-7
Test: Human peripheral T-cell (PBMC) proliferation assay, IL-7
Assay type: cell-based
Settings: ex vivo human primary T cells, 10 nM human IL-7
Method: FIG. 6A-FIG. 6E presents inhibitory spectrum of BNZ132-1 over γc- and non-γc-cytokines. […] Neutralizing antibodies against each cytokine (R & D systems, 5 μg ml^−1) were included as controls. After 20 h, the cells were pulsed with WST-1 (Clontech) and OD450 of each well was measured after 6 h. A 19-mer scrambled peptide was used as a negative control at 5 μM. The experiments were conducted in triplicate (applies to all experiments in FIG. 6A-FIG. 6E). The result represents one of at least three independent experiments (applies to all experiments in FIG. 6A-FIG. 6E). […] In PT-18 proliferation assay, PT-18β or PT-18h21Rα cells were withdrawn of mouse IL-3 for 12 h before the experiment. Cells were then incubated with 1 nM of mouse IL-4, mouse IL-9, or mouse IL-21 in the presence or absence of the indicated doses (μM) of BNZ132-1. Neutralizing antibodies to each cytokine (5 μg ml^−1, except for anti-mouse IL-21 polyclonal antibody which was used at 15 μg ml−1) and a scrambled control peptide (5 μM) were included as negative controls. WST-1 assay was conducted as described above. […] In PT-18 h21Rα survival assay, PT-18h21Rα cells are described in the text. […] Both parental and hIL-21Rα positive PT-18 cells were washed and incubated without IL-3 for 12 h before the assay. […] The Y-axis represents the cpm (count per minute) values measured by a β-counter. […]

For IKEFLQRFIHIVQSIINTS [BNZ132-1], which “inhibition of IL-7-induced proliferation of ex vivo human T cells” value is on record?
The value was “not significantly inhibited; also recorded: no inhibition of IL-7”.
